Test results: PMC7845634 (mBio, 2021)
Read-outs that look alike come from different tables or passages of the source.

Columns and labels:
Assay type in all cases: cell-based
SARS-CoV-2 replicon = experiment: microbe, parasite or virus in culture; details: for IC50: Severe acute respiratory syndrome coronavirus 2, HEK-293T, read-out: IC50 upon replicon RNA synthesis (luciferase activity); for Result of compound library screening on replicon: Approved Drug Screening Library, final concentration 20 μM, 24 h treatment
authentic SARS-CoV-2 = experiment: Authentic SARS-CoV-2 infection assay, viral RNA copies by RT-qPCR; details: Severe acute respiratory syndrome coronavirus 2, HEK-293T, 24 h, read-out: IC50 on authentic viruses (viral RNA copies)
IRES-CMV-luciferase = IRES-CMV-luciferase plasmid counter-assay in 293T cells
[1] = test system: GFP signal of ps2V plasmid
[2] = 293T cells, drug added 24 to 30 h after transfection, 24 h treatment
[3] = Homo sapiens, HEK-293T, read-out: IC50 on IRES-CMV-luciferase activity, 293T cells, drug added 24 to 30 h after transfection, 24 h treatment

| Compound | IC50 (SARS-CoV-2 replicon) [µM] | IC50 (authentic SARS-CoV-2) [µM] | IC50 on IRES-CMV-luciferase activity (IRES-CMV-luciferase; [2]) | IC50 (IRES-CMV-luciferase; [3]) [µM] | Effect on GFP signal [1] | IC50 (IRES-CMV-luciferase; 293T cells, drug added 24 to 30 h after transfection, 24 h treatment, read-out: IC50 on IRES-CMV-luciferase activity) [µM] | Result of compound library screening on replicon (SARS-CoV-2 replicon) |
| --- | --- | --- | --- | --- | --- | --- | --- |
| C=CC(=O)Nc1cccc(Nc2nc(Nc3ccc(N4CCN(C(C)=O)CC4)cc3OC)ncc2C(F)(F)F)c1 [rociletinib] | 7.32 ± 1.21 | 11.2 ± 1.89 | no statistical significance | – | – | – | – |
| COc1cccc2c1C(=O)c1c(O)c3c(c(O)c1C2=O)C[C@@](O)(C(=O)CO)C[C@@H]3O[C@H]1C[C@H](N)[C@H](O)[C@H](C)O1 [Adriamycin] | 0.824 ± 0.114 | 0.612 ± 0.228 | – | 17.8 | – | – | – |
| CC(C)c1nc(CN(C)C(=O)N[C@H](C(=O)N[C@@H](Cc2ccccc2)C[C@H](O)[C@H](Cc2ccccc2)NC(=O)OCc2cncs2)C(C)C)cs1 [ritonavir] | 14.8 ± 1.05 | – | – | – | little effect on GFP signal | – | – |
| Cc1ccc(NC(=O)c2ccc(CN3CCN(C)CC3)cc2)cc1Nc1nc(-c2cccnc2)cs1 [masitinib] | 0.652 ± 0.0661 | 0.597 ± 0.341 | – | 8.64 | – | – | – |
| CCN(CC)C(=S)SSC(=S)N(CC)CC [disulfiram] | 9.32 ± 1.65 | – | – | – | little effect on GFP signal | – | – |
| O=C1c2c(O)ccc(O)c2C(=O)c2c(NCCNCCO)ccc(NCCNCCO)c21 [mitoxantrone] | 0.338 ± 0.235 | 0.133 ± 0.0901 | – | 27.8 | – | 26.8 ± 1.2 | – |
| CCc1cc2c(cc1N1CCC(N3CCOCC3)CC1)C(C)(C)c1[nH]c3cc(C#N)ccc3c1C2=O [alectinib] | 0.564 ± 0.0175 | 0.14 ± 0.0913 | no statistical significance | – | – | – | – |
| C[C@@H]1O[C@@H](O[C@H]2C[C@@H](O)[C@]3(CO)[C@H]4[C@H](O)C[C@]5(C)[C@@H](C6=CC(=O)OC6)CC[C@]5(O)[C@@H]4CC[C@]3(O)C2)[C@H](O)[C@H](O)[C@H]1O [ouabain] | – | – | – | – | – | – | hit |
| CCC(CC)COC(=O)[C@H](C)N[P@](=O)(OC[C@H]1O[C@@](C#N)(c2ccc3c(N)ncnn23)[C@H](O)[C@@H]1O)Oc1ccccc1 [remdesivir] | 12.4 ± 1.08 | – | – | – | little effect on GFP signal | – | – |
| C[C@H]1O[C@@H](O[C@H]2[C@@H](O)C[C@H](O[C@H]3[C@@H](O)C[C@H](O[C@H]4CC[C@@]5(C)[C@H](CC[C@@H]6[C@@H]5CC[C@]5(C)[C@@H](C7=CC(=O)OC7)CC[C@]65O)C4)O[C@@H]3C)O[C@@H]2C)C[C@H](O)[C@@H]1O [digitoxin] | – | – | – | – | – | – | hit |
| CC[C@H]1CN2CCc3cc(OC)c(OC)cc3[C@@H]2C[C@@H]1C[C@H]1NCCc2cc(OC)c(OC)cc21 [emetine] | 0.273 ± 0.0093 | 0.155 ± 0.068 | – | – | little effect on GFP signal | – | hit |
| Cc1cccc(C)c1OCC(=O)N[C@@H](Cc1ccccc1)[C@@H](O)C[C@H](Cc1ccccc1)NC(=O)[C@H](C(C)C)N1CCCNC1=O [lopinavir] | 6.79 ± 1.09 | – | – | – | little effect on GFP signal | – | – |
